Laboratory results as given in patent publication US5780605A, “6,9-bridged erythromycin derivatives” (Abbott Laboratories, priority 1997, dated 1998).

Assays:
Assay in all cases: in vitro antibacterial activity (MIC), BHI agar dilution
Format in all cases: cell-based
[1] = system: Streptococcus Pheumoniae ATCC6303; settings: 35-37° C., 20 to 24 hours
Protocol: (§1) Representative compounds of the present invention were assayed in vitro for antibacterial activity as follows: Twelve petri dishes containing successive aqueous dilutions of the test compound mixed with 10 mL of sterilized Brain Heart Infusion (BHI) agar (Difco 0418-01-5) were prepared. Each plate was inoculated with 1:100 (or 1:10 for slow-growing strains, such as Micrococcus and Streptococcus) dilutions of up to 32 different microorganisms, using a Steers replicator block. […] In addition, a control plate, using BHI agar containing no test compound, was prepared and incubated at the beginning and end of each test.
(§2) An additional plate containing a compound having known susceptibility patterns for the organisms being tested and belonging to the same antibiotic class as the test compound was also prepared and incubated as a further control, as well as to provide test-to-test comparability.
(§3) After incubation, each plate was visually inspected. The minimum inhibitory concentration (MIC) was defined as the lowest concentration of drug yielding no growth, a slight haze, or sparsely isolated colonies on the inoculum spot as compared to the growth control.

[2] = system: Staphylococcus epidermidis 3519; settings: S. epidermidis 3519, 35-37° C., 20 to 24 hours
Protocol: as §1, §2, §3

[3] = system: Streptococcus Pheumoniae 5649; settings: 35-37° C., 20 to 24 hours
Protocol: as §1, §2, §3

[4] = system: Streptococcus pyogenes PIU 2548; settings: S. pyogenes PIU 2548, 35-37° C., 20 to 24 hours
Protocol: as §1, §2, §3

[5] = system: Haemophilis Influenzae DILL AMP R; settings: 35-37° C., 20 to 24 hours
Protocol: as §1, §2, §3

[6] = system: Staphylococcus aureus ATCC 6538P; settings: S. aureus ATCC 6538P, 35-37° C., 20 to 24 hours
Protocol: as §1, §2, §3

Escherichia coli DC-2 = settings: E. coli DC-2, 35-37° C., 20 to 24 hours
Protocol: as §1, §2, §3

[7] = system: Enterococcus faecium ATCC 8043; settings: E. faecium ATCC 8043, 35-37° C., 20 to 24 hours
Protocol: as §1, §2, §3

Escherichia coli JUHL = settings: E. coli JUHL, 35-37° C., 20 to 24 hours
Protocol: as §1, §2, §3

[8] = system: Streptococcus pyogenes EES61; settings: S. pyogenes EES61, 35-37° C., 20 to 24 hours
Protocol: as §1, §2, §3

[9] = system: Staphylococcus aureus CMX 642A; settings: S. aureus CMX 642A, 35-37° C., 20 to 24 hours
Protocol: as §1, §2, §3

[10] = system: Staphylococcus aureus CMX 553; settings: S. aureus CMX 553, 35-37° C., 20 to 24 hours
Protocol: as §1, §2, §3

[11] = system: Streptococcus agalactiae CMX 508; settings: S. agalactiae CMX 508, 35-37° C., 20 to 24 hours
Protocol: as §1, §2, §3

[12] = system: Streptococcus bovis A-5169; settings: S. bovis A-5169, 35-37° C., 20 to 24 hours
Protocol: as §1, §2, §3

[13] = system: Staphylococcus aureus NCTC10649M; settings: S. aureus NCTC10649M, 35-37° C., 20 to 24 hours
Protocol: as §1, §2, §3

[14] = system: Micrococcus luteus ATCC 9341; settings: M. luteus ATCC 9341, 35-37° C., 20 to 24 hours
Protocol: as §1, §2, §3

[15] = system: Streptococcus Pheumoniae GYR 1171; settings: 35-37° C., 20 to 24 hours
Protocol: as §1, §2, §3

[16] = system: Streptococcus pyogenes 930; settings: S. pyogenes 930, 35-37° C., 20 to 24 hours
Protocol: as §1, §2, §3

[17] = system: Staphylococcus aureus A-5278; settings: S. aureus A-5278, 35-37° C., 20 to 24 hours
Protocol: as §1, §2, §3

[18] = system: Mycobacterium smegmafis ATCC 114; settings: 35-37° C., 20 to 24 hours
Protocol: as §1, §2, §3

Candida albicans CCH 442 = settings: C. albicans CCH 442, 35-37° C., 20 to 24 hours
Protocol: as §1, §2, §3

[19] = system: Staphylococcus aureus A5177; settings: S. aureus A5177, 35-37° C., 20 to 24 hours
Protocol: as §1, §2, §3

[20] = system: Staphylococcus aureus 1775; settings: S. aureus 1775, 35-37° C., 20 to 24 hours
Protocol: as §1, §2, §3

[21] = system: Micrococcus luteus ATCC 4698; settings: M. luteus ATCC 4698, 35-37° C., 20 to 24 hours
Protocol: as §1, §2, §3

[22] = system: Nocardia Asteroides ATCC9970; settings: 35-37° C., 20 to 24 hours
Protocol: as §1, §2, §3

Escherichia coli SS = settings: E. coli SS, 35-37° C., 20 to 24 hours
Protocol: as §1, §2, §3

[23] = system: Streptococcus Pheumoniae 5979; settings: 35-37° C., 20 to 24 hours
Protocol: as §1, §2, §3

SMILES	MIC (minimum inhibitory concentration) [1]	MIC (minimum inhibitory concentration) [2]	MIC (minimum inhibitory concentration) [3]	MIC (minimum inhibitory concentration) [4]	MIC (minimum inhibitory concentration) [5]	MIC (minimum inhibitory concentration) [6]	MIC (minimum inhibitory concentration) (Escherichia coli DC-2)	MIC (minimum inhibitory concentration) [7]	MIC (minimum inhibitory concentration) (Escherichia coli JUHL)	MIC (minimum inhibitory concentration) [8]	MIC (minimum inhibitory concentration) [9]	MIC (minimum inhibitory concentration) [10]	MIC (minimum inhibitory concentration) [11]	MIC (minimum inhibitory concentration) [12]	MIC (minimum inhibitory concentration) [14]	MIC (minimum inhibitory concentration) [15]	MIC (minimum inhibitory concentration) [16]	MIC (minimum inhibitory concentration) [17]	MIC (minimum inhibitory concentration) [18]	MIC (minimum inhibitory concentration) (Candida albicans CCH 442)	other results
CC[C@H]1OC(=O)[C@H](C)[C@@H](O[C@H]2C[C@@](C)(OC)[C@@H](O)[C@H](C)O2)[C@H](C)[C@@H](O[C@@H]2O[C@H](C)C[C@H](N(C)C)[C@H]2O)[C@](C)(O)C[C@@H](C)C(=O)[C@H](C)[C@@H](O)[C@]1(C)O [Ery. A, Erythromycin A, reference compound]	0.06	0.39	16	6.2	4	0.2	> 100	0.05	> 100	0.05	0.39	0.39	0.05	0.02	0.05	0.06	> 100	> 100	3.1	> 100	MIC (minimum inhibitory concentration) [13]: 0.39; MIC (minimum inhibitory concentration) [19]: 3.1; MIC (minimum inhibitory concentration) [20]: > 100; MIC (minimum inhibitory concentration) [21]: 0.2
CC[C@H]1OC(=O)[C@H](C)[C@@H](O[C@H]2C[C@@](C)(OC)[C@@H](O)[C@H](C)O2)[C@H](C)[C@@H](O[C@@H]2O[C@H](C)C[C@H](N(C)C)[C@H]2O)[C@@]2(C)C[C@@H](C)C(=NOCO2)[C@H](C)[C@@H](O)[C@]1(C)O [Example 1]	1	6.2	4	6.2	32	6.2	> 100	1.56	> 100	0.39	12.5	6.2	0.39	0.39	0.2	0.5	> 100	> 100	1.56	> 100	MIC (minimum inhibitory concentration) [22]: 0.39; MIC (minimum inhibitory concentration) (Escherichia coli SS): 1.56; MIC (minimum inhibitory concentration) [13]: 6.2; MIC (minimum inhibitory concentration) [23]: > 64; MIC (minimum inhibitory concentration) [19]: > 100; MIC (minimum inhibitory concentration) [20]: > 100; MIC (minimum inhibitory concentration) [21]: 1.56
CC[C@H]1OC(=O)[C@H](C)C(=O)[C@H](C)[C@@H](O[C@@H]2O[C@H](C)C[C@H](N(C)C)[C@H]2O)[C@@]2(C)C[C@@H](C)C(=NOCO2)[C@H](C)[C@H]2OC(=O)O[C@@]21C [Example 3]	1	3.1	0.5	0.78	16	3.1	> 100	0.78	> 100	0.39	3.1	3.1	0.78	0.2	0.39	0.25	> 100	> 100	25	> 100	MIC (minimum inhibitory concentration) [22]: 0.78; MIC (minimum inhibitory concentration) (Escherichia coli SS): 0.78; MIC (minimum inhibitory concentration) [13]: 3.1; MIC (minimum inhibitory concentration) [23]: > 128; MIC (minimum inhibitory concentration) [19]: 3.1; MIC (minimum inhibitory concentration) [20]: > 100; MIC (minimum inhibitory concentration) [21]: 0.78
CC[C@H]1OC(=O)[C@H](C)[C@@H](O[C@H]2C[C@@](C)(OC)[C@@H](O)[C@H](C)O2)[C@H](C)[C@@H](O[C@@H]2O[C@H](C)C[C@H](N(C)C)[C@H]2O)[C@@]2(C)C[C@@H](C)C(=NOCO2)[C@H](C)[C@H]2OC(=O)O[C@@]21C [Example 2]	0.06	0.39	4	3.1	2	0.39	25	0.1	50	<= 0.005	0.39	0.78	0.05	0.02	0.1	0.03	> 100	> 100	3.1	> 100	MIC (minimum inhibitory concentration) [22]: 0.1; MIC (minimum inhibitory concentration) (Escherichia coli SS): 0.78; MIC (minimum inhibitory concentration) [23]: > 128; MIC (minimum inhibitory concentration) [19]: 3.1; MIC (minimum inhibitory concentration) [20]: > 100; MIC (minimum inhibitory concentration) [21]: 0.39
